Test results as given in PMC10716780, “The multistep oxidation of cholesterol to pregnenolone by human cytochrome P450 11A1 is highly processive” (The Journal of Biological Chemistry, 2023).
Values joined by “and” are separate entries in the source; they are usually repeats but may differ in a detail not shown here. Equal entries are not always repeated.

Target: T1, human P450 11A1 (Homo sapiens, UniProt P05108)
T1 sequence (P05108 41-521 limits assumed): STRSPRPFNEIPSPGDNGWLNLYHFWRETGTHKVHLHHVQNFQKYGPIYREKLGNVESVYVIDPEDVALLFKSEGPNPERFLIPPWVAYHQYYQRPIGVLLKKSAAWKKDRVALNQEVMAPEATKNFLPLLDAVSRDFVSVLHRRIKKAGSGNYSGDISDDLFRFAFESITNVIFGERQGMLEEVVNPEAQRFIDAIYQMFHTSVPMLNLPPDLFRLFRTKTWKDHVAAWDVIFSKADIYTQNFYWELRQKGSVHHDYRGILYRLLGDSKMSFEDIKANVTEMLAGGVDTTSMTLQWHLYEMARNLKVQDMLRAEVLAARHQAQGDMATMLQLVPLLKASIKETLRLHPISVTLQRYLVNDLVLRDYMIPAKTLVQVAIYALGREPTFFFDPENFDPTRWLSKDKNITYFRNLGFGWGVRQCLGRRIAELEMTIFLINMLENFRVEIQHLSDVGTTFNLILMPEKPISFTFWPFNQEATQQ
T1 sequence (P00257 59-186 partner): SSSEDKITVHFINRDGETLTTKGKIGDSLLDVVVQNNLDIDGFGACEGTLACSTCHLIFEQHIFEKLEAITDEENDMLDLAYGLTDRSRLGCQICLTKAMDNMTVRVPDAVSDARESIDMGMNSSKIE
Experiment: Steady-state conversion of sterols to pregnenolone by reconstituted P450 11A1 (UPLC-MS of dansyl hydrazone)
Format: biochemical
Design: M A S T R S P R P F N E I P S P G D N; Met-Ala (N-terminal start residues in place of the transit peptide and Ile40) (N); made in house; host or cells: E. coli (P450 11A1 in C41(DE3); Adx and AdR in E. coli)
Settings: for Km / kcat / kcat (conversion of sterol to pregnenolone): 0.25 μM P450, 0.5 μM AdR, 10 μM Adx, 37 °C; for rate of pregnenolone formation: duplicate, raw data of Fig. 5
Experimental: Accordingly, all steady-state assays were done, unless otherwise noted, with a P450 11A1:Adx:AdR molar ratio of 1:40:2 (Fig. 2, that is, 0.25 μM P450, 10 μM Adx, and 0.5 μM AdR), in the absence of added lipid or detergent, and with the addition of sterol substrates in HPCD (stock 45% w/v).
As mentioned in the Introduction, many types of assays have been used to monitor the steady-state conversion of cholesterol to pregnenolone ([12], [14], [15], [16], [17], [18], [19], [20], [21]). A reliable and sensitive method was required that could be used for presteady-state reactions and was not reliant on the presence of isotope in cholesterol, in that, we also worked with 22R-OH cholesterol and 20R,22R-(OH)2 cholesterol as substrates. We utilized a method based on our work with P450 17A1 ([41], [42]), in which we derivatized the product pregnenolone as its dansyl hydrazone and separated it by ultra-performance liquid chromatography (UPLC) with detection by positive ion electrospray mass spectrometry (MS). The steroid dehydroepiandosterone (DHEA) was used an internal standard.
Reactions were performed by reconstituting P450 (0.25 μM), AdR (0.5 μM), and Adx (10 μM) on ice for 10 min prior to dilution in potassium Hepes buffer (50 mM, pH 7.4) and H2O and the addition of substrate (sterol, in HPCD (45% w/v)). Sterol dilutions were performed in HPCD to ensure that the HPCD composition was equal throughout all incubations (final 4.5% w/v). The reaction mixture was split between vials (425 μl in each), and reactions were preincubated (37 °C, 5 min) prior to initiation (75 μl) with an NADPH-generating system (0.5 mM NADP^+, 10 mM glucose 6-phosphate, and 2 μg ml^−1 glucose 6-phosphate dehydrogenase) ([61]). Reactions (5 min) were terminated by extraction into CH2Cl2 (2 ml) and transferred to an ice bath. After the experiment was complete, the quenched reactions were subjected to centrifugation (10^3g, 5 min, 23 °C) to separate layers, the organic (bottom) layer of each sample was removed (1.6 ml) to fresh glass vials, and the samples were brought to dryness under a stream of nitrogen.
Steroid extracts were subsequently derivatized with dansylhydrazine and analyzed as described previously ([42]). Briefly, the dried residue was resuspended (200 μl) in C2H5OH (fortified with 0.1% v/v CF3CO2H, as the derivatization reaction is H^+-catalyzed) and mixed with a vortex device. Samples were transferred to 1.5 ml amber glass vials, solutions of dansylhydrazine (10 mM) and DHEA, 10 μM, as internal standard) were added, and vials were capped, mixed with a vortex device, and incubated in the dark overnight (∼16 h, 23 °C). The derivatization reaction was quenched with acetone […], briefly incubated in the dark (∼30 min, 23 °C), and was then neutralized with base (250 μl of 0.5 M NaOH) and extracted into CH2Cl2 (1 ml). The samples were mixed with a vortex device and the organic (bottom) layer was removed (0.8 ml) to clean amber vials. Solvent was again removed under nitrogen, and the dried residue was dissolved in a mobile phase (100 μl) of 0.1% CF3CO2H in aqueous CH3CN (50%, v/v) for analysis.
Samples were injected (10 μl, held at 25 °C) on a 2.1 mm × 50 mm (1.7 μm) Acquity BEH octadecylsilane (C18) column (held at 40 °C) using a Waters Acquity UPLC with a flow rate of 0.2 ml min^−1 and a gradient mobile phase of (A) 0.1% aqueous HCO2H and (B) CH3CN as follows (all %B, v/v): 0 min, 40%; 0.5 min, 40%; 8 min, 100%; 8.5 min, 95%; 9 min, 100%; 9.1 min, 40%; and 10 min, 40%.

CC(C)CC[C@@H](O)[C@](C)(O)[C@H]1CC[C@H]2[C@@H]3CC=C4C[C@@H](O)CC[C@]4(C)[C@H]3CC[C@]12C [20R,22R-(OH)2 Chol, (20R,22R)-Cholest-5-ene-3β,20,22-triol]
Km: 36 ± 7 µM
kcat: 0.233 ± 0.017 s⁻¹
kcat (conversion of sterol to pregnenolone): 0.23 ± 0.02 s⁻¹
kcat and kcat/Km relative to starting substrate cholesterol (greater) (steady state): ~2 fold
rate of pregnenolone formation (substrate 5 µM, listed as 20R,22R-(OH)2 Cholesterol): 2.46 min⁻¹ and 2.24 min⁻¹
rate of pregnenolone formation (substrate 7.5 µM, listed as 20R,22R-(OH)2 Cholesterol): 2.57 min⁻¹ and 2.85 min⁻¹
rate of pregnenolone formation (substrate 15 µM, listed as 20R,22R-(OH)2 Cholesterol): 3.83 min⁻¹ and 4.18 min⁻¹
rate of pregnenolone formation (substrate 20 µM, listed as 20R,22R-(OH)2 Cholesterol): 4.26 min⁻¹ and 5.83 min⁻¹
rate of pregnenolone formation (substrate 30 µM, listed as 20R,22R-(OH)2 Cholesterol): 5.47 min⁻¹ and 6.23 min⁻¹
rate of pregnenolone formation (substrate 40 µM, listed as 20R,22R-(OH)2 Cholesterol): 7.20 min⁻¹ and 6.21 min⁻¹
rate of pregnenolone formation (substrate 50 µM, listed as 20R,22R-(OH)2 Cholesterol): 6.51 min⁻¹ and 8.53 min⁻¹
rate of pregnenolone formation (substrate 75 µM, listed as 20R,22R-(OH)2 Cholesterol): 7.45 min⁻¹ and 10.26 min⁻¹
rate of pregnenolone formation (substrate 100 µM, listed as 20R,22R-(OH)2 Cholesterol): 12.01 min⁻¹ and 10.27 min⁻¹
rate of pregnenolone formation (substrate 150 µM, listed as 20R,22R-(OH)2 Cholesterol): 9.70 min⁻¹ and 11.61 min⁻¹

CC(C)CC[C@H](O)[C@](C)(O)[C@H]1CC[C@H]2[C@@H]3CC=C4C[C@@H](O)CC[C@]4(C)[C@H]3CC[C@]12C [20R,22S-(OH)2 Chol, (20R,22S)-Cholest-5-ene 3β,20,22-triol]
Km: 15 ± 2 µM
kcat: 0.0833 ± 0.0033 s⁻¹
kcat (conversion of sterol to pregnenolone): 0.083 ± 0.003 s⁻¹
kcat lower than native diol 20R,22R-(OH)2 cholesterol (steady state): ~3 fold
rate of pregnenolone formation (substrate 7.5 µM, listed as 20R,22S-(OH)2 Cholesterol): 2.07 min⁻¹ and 1.68 min⁻¹
rate of pregnenolone formation (substrate 15 µM, listed as 20R,22S-(OH)2 Cholesterol): 1.97 min⁻¹ and 1.99 min⁻¹
rate of pregnenolone formation (substrate 20 µM, listed as 20R,22S-(OH)2 Cholesterol): 2.93 min⁻¹ and 2.88 min⁻¹
rate of pregnenolone formation (substrate 30 µM, listed as 20R,22S-(OH)2 Cholesterol): 3.59 min⁻¹ and 3.11 min⁻¹
rate of pregnenolone formation (substrate 40 µM, listed as 20R,22S-(OH)2 Cholesterol): 3.90 min⁻¹ and 4.10 min⁻¹
rate of pregnenolone formation (substrate 50 µM, listed as 20R,22S-(OH)2 Cholesterol): 3.70 min⁻¹ and 3.57 min⁻¹
rate of pregnenolone formation (substrate 75 µM, listed as 20R,22S-(OH)2 Cholesterol): 4.16 min⁻¹ and 4.38 min⁻¹
rate of pregnenolone formation (substrate 100 µM, listed as 20R,22S-(OH)2 Cholesterol): 4.14 min⁻¹ and 4.09 min⁻¹
rate of pregnenolone formation (substrate 150 µM, listed as 20R,22S-(OH)2 Cholesterol): 4.64 min⁻¹ and 4.37 min⁻¹

CC(C)CC[C@@H](O)[C@@H](C)[C@H]1CC[C@H]2[C@@H]3CC=C4C[C@@H](O)CC[C@]4(C)[C@H]3CC[C@]12C [22R-OH Chol, 22R-hydroxycholesterol]
Km: 29 ± 3 µM
kcat: 0.152 ± 0.005 s⁻¹
kcat (conversion of sterol to pregnenolone): 0.15 ± 0.01 s⁻¹
rate of pregnenolone formation (substrate 2.5 µM, listed as 22R-OH Cholesterol): 1.34 min⁻¹ and 1.02 min⁻¹
rate of pregnenolone formation (substrate 5 µM, listed as 22R-OH Cholesterol): 1.68 min⁻¹ and 1.48 min⁻¹
rate of pregnenolone formation (substrate 7.5 µM, listed as 22R-OH Cholesterol): 1.94 min⁻¹ and 2.15 min⁻¹
rate of pregnenolone formation (substrate 15 µM, listed as 22R-OH Cholesterol): 3.15 min⁻¹ and 3.07 min⁻¹
rate of pregnenolone formation (substrate 20 µM, listed as 22R-OH Cholesterol): 3.29 min⁻¹ and 3.38 min⁻¹
rate of pregnenolone formation (substrate 30 µM, listed as 22R-OH Cholesterol): 4.66 min⁻¹ and 5.17 min⁻¹
rate of pregnenolone formation (substrate 40 µM): 5.08 min⁻¹
rate of pregnenolone formation (substrate 50 µM, listed as 22R-OH Cholesterol): 5.23 min⁻¹ and 5.80 min⁻¹
rate of pregnenolone formation (substrate 75 µM, listed as 22R-OH Cholesterol): 6.76 min⁻¹ and 6.27 min⁻¹
rate of pregnenolone formation (substrate 100 µM, listed as 22R-OH Cholesterol): 7.41 min⁻¹ and 6.71 min⁻¹
rate of pregnenolone formation (substrate 150 µM, listed as 22R-OH Cholesterol): 7.68 min⁻¹ and 8.05 min⁻¹

CC(C)CCC[C@@H](C)[C@H]1CC[C@H]2[C@@H]3CC=C4C[C@@H](O)CC[C@]4(C)[C@H]3CC[C@]12C [Cholesterol]
Km: 38 ± 6 µM
kcat: 0.115 ± 0.0083 s⁻¹
kcat (conversion of sterol to pregnenolone): 0.12 ± 0.01 s⁻¹
kcat (conversion of sterol to pregnenolone) (listed as cholesterol): 0.12 s⁻¹
kcat for conversion to pregnenolone (40-fold excess Adx): 6.9 nmol product formed min^−1 (nmol P450)^−1
rate of pregnenolone formation (substrate 7.5 µM): 1.32 min⁻¹ and 1.18 min⁻¹
rate of pregnenolone formation (substrate 15 µM): 1.88 min⁻¹ and 1.72 min⁻¹
rate of pregnenolone formation (substrate 20 µM): 2.38 min⁻¹ and 2.20 min⁻¹
rate of pregnenolone formation (substrate 30 µM): 2.47 min⁻¹ and 2.46 min⁻¹
rate of pregnenolone formation (substrate 40 µM): 3.96 min⁻¹ and 3.88 min⁻¹
rate of pregnenolone formation (substrate 50 µM): 4.06 min⁻¹ and 4.00 min⁻¹
rate of pregnenolone formation (substrate 75 µM): 4.99 min⁻¹ and 4.93 min⁻¹
rate of pregnenolone formation (substrate 100 µM): 5.93 min⁻¹ and 4.92 min⁻¹
rate of pregnenolone formation (substrate 150 µM): 4.83 min⁻¹ and 5.08 min⁻¹
